According to patent US20070010671A1, “Novel quinazoline derivatives and methods of treatment related to the use thereof” (priority 2003, published 2007):
Where a name gives a salt, the structure may show the parent alone.

The compounds below were run against MCH receptor (Homo sapiens, UniProt Q99705) (assay: High throughput functional screening FLIPR/FDSS6000: inhibition of MCH-evoked intracellular Ca2+ changes). Conditions: antagonist activity, 50 nM of MCH, FLIPR or FDSS; read-out: IC50.
Assay type: cell-based
How it was run: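 Antagonism is measured as inhibition of the intracellular calcium rise triggered by 50 nM MCH in cells bearing a constitutively active, non-endogenous form of the receptor. Cells are dye-loaded with Fluo4-AM and exposed to compound for 3 min at 37° C before agonist addition.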

IC50 [nM] | Compound
4.9 | CN(C)c1nc(N[C@H]2CC[C@@H](CNC(=O)Nc3c(Cl)cccc3Cl)CC2)nc2ccccc12 [Example 3, 1-(2,6-Dichloro-phenyl)-3-[cis-4-(4-dimethylamino-quinazolin-2-)ylamino)-cyclohexylmethyl]-urea hydrochloride]

Same assay, conditions: class by percent of control at 10^-7 M or IC50

Compound | class
CN(C)c1nc(N[C@H]2CC[C@@H](CNC(=S)Nc3ccc(Br)cc3C(F)(F)F)CC2)nc2ccccc12 [compound 693, N-[4-bromo-2-(trifluoromethyl)phenyl]-N′-[(cis-4-{[4-(dimethylamino)quinazolin-2-yl]amino}cyclohexyl)methyl]thiourea] | 2 (Class 2: The value of percent of control at 10^−7 M was from 40% to 60% or the value of IC50 was from 50 nM to 200 nM.)
CN(C)c1nc(N[C@H]2CC[C@@H](CNC(=S)Nc3ccc(Br)cc3)CC2)nc2ccccc12 [compound 582] | 3 (Class 3: The value of percent of control at 10^−7 M was more than 60% or the value of IC50 was more than 200 nM.)
CN(C)c1nc(N[C@H]2CC[C@@H](NC(=S)Nc3cccnc3)CC2)nc2ccccc12 [compound 390] | 3 (Class 3: The value of percent of control at 10^−7 M was more than 60% or the value of IC50 was more than 200 nM.)
COc1cccc(CNC(=S)N[C@H]2CC[C@@H](Nc3nc(N(C)C)c4ccccc4n3)CC2)c1 [compound 309, N-(cis-4-{[4-(dimethylamino)quinazolin-2-yl]amino}cyclohexyl)-N′-(3-methoxybenzyl)thiourea] | 2 (Class 2: The value of percent of control at 10^−7 M was from 40% to 60% or the value of IC50 was from 50 nM to 200 nM.)
CN(C)c1nc(N[C@H]2CC[C@@H](NC(=S)Nc3ccc(OC(F)(F)F)cc3)CC2)nc2ccccc12 [compound 230] | 3 (Class 3: The value of percent of control at 10^−7 M was more than 60% or the value of IC50 was more than 200 nM.)
CN(C)c1nc(N[C@H]2CC[C@@H](NC(=O)Nc3cccs3)CC2)nc2ccccc12 [compound 341] | 3 (Class 3: The value of percent of control at 10^−7 M was more than 60% or the value of IC50 was more than 200 nM.)
CN(C)c1nc(N[C@H]2CC[C@@H](CNC(=S)NCc3cccc4ccccc34)CC2)nc2ccccc12 [compound 713] | 3 (Class 3: The value of percent of control at 10^−7 M was more than 60% or the value of IC50 was more than 200 nM.)
CN(C)c1nc(N[C@H]2CC[C@@H](CNC(=O)Nc3ccc(Cl)cc3)CC2)nc2ccccc12 [compound 416] | 3 (Class 3: The value of percent of control at 10^−7 M was more than 60% or the value of IC50 was more than 200 nM.)
Cc1ccc(NC(=S)NC[C@H]2CC[C@@H](Nc3nc(N(C)C)c4ccccc4n3)CC2)c(C)c1 [compound 673] | 3 (Class 3: The value of percent of control at 10^−7 M was more than 60% or the value of IC50 was more than 200 nM.)
CN(C)c1nc(N[C@H]2CC[C@@H](CNC(=S)Nc3ccc(F)c(F)c3F)CC2)nc2ccccc12 [compound 633, N-[(cis-4-{[4-(dimethylamino)quinazolin-2-yl]amino}cyclohexyl)methyl]-N′-(2,3,4-trifluorophenyl)thiourea] | 2 (Class 2: The value of percent of control at 10^−7 M was from 40% to 60% or the value of IC50 was from 50 nM to 200 nM.)
CN(C)c1nc(N[C@H]2CC[C@@H](CNC(=S)Nc3ccccc3Cl)CC2)nc2ccccc12 [compound 626] | 3 (Class 3: The value of percent of control at 10^−7 M was more than 60% or the value of IC50 was more than 200 nM.)
CCc1ccc(NC(=S)NC[C@H]2CC[C@@H](Nc3nc(N(C)C)c4ccccc4n3)CC2)cc1 [compound 629] | 3 (Class 3: The value of percent of control at 10^−7 M was more than 60% or the value of IC50 was more than 200 nM.)
COc1ccc(CNC(=S)N[C@H]2CC[C@@H](Nc3nc(N(C)C)c4ccccc4n3)CC2)cc1OC [compound 304] | 3 (Class 3: The value of percent of control at 10^−7 M was more than 60% or the value of IC50 was more than 200 nM.)
CN(C)c1nc(N[C@H]2CC[C@@H](CNC(=S)Nc3ccc(C#N)cc3)CC2)nc2ccccc12 [compound 584] | 3 (Class 3: The value of percent of control at 10^−7 M was more than 60% or the value of IC50 was more than 200 nM.)
CN(C)c1nc(N[C@H]2CC[C@@H](CNC(=O)NC(=O)c3ccccc3)CC2)nc2ccccc12 [compound 408] | 3 (Class 3: The value of percent of control at 10^−7 M was more than 60% or the value of IC50 was more than 200 nM.)
CN(C)c1nc(N[C@H]2CC[C@@H](CNC(=S)Nc3ccc4c(c3)OCCO4)CC2)nc2ccccc12 [compound 789] | 3 (Class 3: The value of percent of control at 10^−7 M was more than 60% or the value of IC50 was more than 200 nM.)
CN(C)c1nc(N[C@H]2CC[C@@H](NC(=S)Nc3ccc4c(c3)OCCO4)CC2)nc2ccccc12 [compound 368, N-(2,3-dihydro-1,4-benzodioxin-6-yl)-N′-(cis-4-{[4-(dimethylamino)quinazolin-2-yl]amino}cyclohexyl)thiourea] | 1 (Class 1: The value of percent of control at 10^−7 M was less than 40% or the value of IC50 was less than 50 nM.)
CN(C)c1nc(N[C@H]2CC[C@@H](CNC(=S)Nc3ccccc3C#N)CC2)nc2ccccc12 [compound 723] | 3 (Class 3: The value of percent of control at 10^−7 M was more than 60% or the value of IC50 was more than 200 nM.)
CC(NC(=S)NC[C@H]1CC[C@@H](Nc2nc(N(C)C)c3ccccc3n2)CC1)c1ccccc1 (relative stereo) [compound 707] | 3 (Class 3: The value of percent of control at 10^−7 M was more than 60% or the value of IC50 was more than 200 nM.)
CN(C)c1nc(N[C@H]2CC[C@@H](NC(=S)Nc3ccc(Br)cc3Cl)CC2)nc2ccccc12 [compound 233] | 1 (Class 1: The value of percent of control at 10^−7 M was less than 40% or the value of IC50 was less than 50 nM.)
COc1ccc(CNC(=S)NC[C@H]2CC[C@@H](Nc3nc(N(C)C)c4ccccc4n3)CC2)cc1OC [compound 728] | 3 (Class 3: The value of percent of control at 10^−7 M was more than 60% or the value of IC50 was more than 200 nM.)
CN(C)c1nc(N[C@H]2CC[C@@H](NC(=S)Nc3ccc(F)cc3Br)CC2)nc2ccccc12 [compound 383] | 2 (Class 2: The value of percent of control at 10^−7 M was from 40% to 60% or the value of IC50 was from 50 nM to 200 nM.)
Cc1c(Cl)cccc1NC(=S)NC[C@H]1CC[C@@H](Nc2nc(N(C)C)c3ccccc3n2)CC1 [compound 792] | 3 (Class 3: The value of percent of control at 10^−7 M was more than 60% or the value of IC50 was more than 200 nM.)
CCCCNC(=S)NC[C@H]1CC[C@@H](Nc2nc(N(C)C)c3ccccc3n2)CC1 [compound 583] | 3 (Class 3: The value of percent of control at 10^−7 M was more than 60% or the value of IC50 was more than 200 nM.)
CN(C)c1nc(N[C@H]2CC[C@@H](CNC(=S)Nc3ccc(F)cc3)CC2)nc2ccccc12 [compound 599] | 3 (Class 3: The value of percent of control at 10^−7 M was more than 60% or the value of IC50 was more than 200 nM.)

Same assay, conditions: class by percent of control at 10^-7 M or by IC50; read-out: class

IC50 [nM] | Compound
> 200 | Cc1ccc(F)c(NC(=O)N[C@H]2CC[C@@H](Nc3nc(N(C)C)c4ccccc4n3)CC2)c1 [compound 98, N-(cis-4-{[4-(dimethylamino)quinazolin-2-yl]amino}cyclohexyl)-N′-(2-fluro-5-methylphenyl)urea]
50 to 200 | CN(C)c1nc(N[C@H]2CC[C@@H](NC(=O)NCc3ccc(Cl)c(Cl)c3)CC2)nc2ccccc12 [compound 122, N-(3,4-dichlorobenzyl)-N′-(cis-4-{[4-(dimethylamino)quinazolin-2-yl]amino}cyclohexyl)urea]
> 200 | CCOC(=O)N[C@H]1CC[C@@H](Nc2nc(N(C)C)c3ccccc3n2)CC1 [compound 854]
> 200 | CN(C)c1nc(N[C@H]2CC[C@@H](CNC(=S)Nc3ccc(/N=N/c4ccccc4)cc3)CC2)nc2ccccc12 [compound 812]
> 200 | CN(C)c1nc(N[C@H]2CC[C@@H](CNC(=S)Nc3ccc(F)cc3Br)CC2)nc2ccccc12 [compound 803]
< 50 | CN(C)c1nc(N[C@H]2CC[C@@H](NC(=O)Nc3ccccc3C(F)(F)F)CC2)nc2ccccc12 [compound 55, N-(cis-4-{[4-(dimethylamino)quinazolin-2-yl]amino}cyclohexyl)-N′-[2-(trifluoromethyl)phenyl]urea]
50 to 200 | CN(C)c1nc(N[C@H]2CC[C@@H](NC(=S)NC3CCCC3)CC2)nc2ccccc12 [compound 162, N-cyclopentyl-N′-(cis-4-{[4-(dimethylamino)quinazolin-2-yl]amino}cyclohexyl)thiourea]
< 50 | CCc1cccc(C(C)C)c1NC(=O)N[C@H]1CC[C@@H](Nc2nc(N(C)C)c3ccccc3n2)CC1 [compound 94, N-(cis-4-{[4-(dimethylamino)quinazolin-2-yl]amino}cyclohexyl)-N′-(2-ethyl-6-isopropylphenyl)urea]

Same assay, conditions: class by percent of control at 10^−7 M or by IC50; read-out: class

IC50 [nM] | Compound
< 50 | CN(C)c1nc(N[C@H]2CC[C@@H](C(=O)NCc3ccc(F)c(C(F)(F)F)c3)CC2)nc2ccccc12 [Example 1176, cis-4-{[4-(dimethylamino)quinazolin-2-yl]amino}-N-[4-fluoro-3-(trifluoromethyl)benzyl]cyclohexanecarboxamide]
< 50 | COc1ccccc1Oc1ccc(C(=O)N[C@H]2CC[C@@H](Nc3nc(N(C)C)c4ccccc4n3)CC2)cn1 [Example 1054, N-(cis-4-{[4-(dimethylamino)quinazolin-2-yl]amino}cyclohexyl)-6-(2-methoxyphenoxy)nicotinamide]
< 50 | CN(C)c1nc(N[C@H]2CC[C@@H](C(=O)NC3c4ccccc4-c4ccccc43)CC2)nc2ccccc12 [Example 1194, cis-4-{[4-(dimethylamino)quinazolin-2-yl]amino}-N-9H-fluoren-9-ylcyclohexanecarboxamide]
